Measured values reported in ChEMBL document CHEMBL5131517 (ACS Med Chem Lett, 2022).

Legend:
[1] = target: T1, Alpha-2A adrenergic receptor (Homo sapiens) (UniProt P08913); assay: Inhibition of alpha2A receptor (unknown origin); conditions: concentration not given here
T1 sequence (whole entry): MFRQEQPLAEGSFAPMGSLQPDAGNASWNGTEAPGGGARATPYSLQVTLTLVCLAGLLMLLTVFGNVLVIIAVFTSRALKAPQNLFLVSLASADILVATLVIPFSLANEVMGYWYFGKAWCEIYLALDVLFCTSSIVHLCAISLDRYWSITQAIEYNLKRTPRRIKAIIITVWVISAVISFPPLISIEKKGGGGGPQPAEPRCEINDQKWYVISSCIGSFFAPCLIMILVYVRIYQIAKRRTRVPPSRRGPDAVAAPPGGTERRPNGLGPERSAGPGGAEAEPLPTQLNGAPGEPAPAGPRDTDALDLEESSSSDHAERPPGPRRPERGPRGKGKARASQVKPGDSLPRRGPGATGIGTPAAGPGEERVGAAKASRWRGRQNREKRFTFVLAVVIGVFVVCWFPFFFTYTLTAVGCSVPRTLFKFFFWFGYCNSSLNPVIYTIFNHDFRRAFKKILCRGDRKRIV

[2] = target: Delta-type opioid receptor (Homo sapiens) (UniProt P41143); assay: Inhibition of DOR receptor (unknown origin); conditions: concentration not given here
[3] = target: D(1A) dopamine receptor (Homo sapiens) (UniProt P21728); assay: Inhibition of D1 receptor (unknown origin); conditions: concentration not given here
[4] = target: D(3) dopamine receptor (Homo sapiens, UniProt P35462); assay: Inhibition of D3 receptor (unknown origin); conditions: concentration not given here
[5] = target: 5-hydroxytryptamine receptor 2A (Homo sapiens, UniProt P28223); assay: Agonist activity at human 5HT2A receptor stably expressed in Flp-In-T-REx-293 cells assessed as maximal Gq-mediated calcium flux by Fluo-4 direct dye based FLIPR Tetra assay relative to control; format: functional, cell-based; conditions: filed as agonist
[6] = target: D(1B) dopamine receptor (Homo sapiens) (UniProt P21918); assay: Inhibition of D5 receptor (unknown origin); conditions: concentration not given here
[7] = target: T2, 5-hydroxytryptamine receptor 1A (Homo sapiens, UniProt P08908); assay: Binding affinity to 5HT1A receptor (unknown origin) assessed as inhibition constant
T2 sequence (P08908 whole entry): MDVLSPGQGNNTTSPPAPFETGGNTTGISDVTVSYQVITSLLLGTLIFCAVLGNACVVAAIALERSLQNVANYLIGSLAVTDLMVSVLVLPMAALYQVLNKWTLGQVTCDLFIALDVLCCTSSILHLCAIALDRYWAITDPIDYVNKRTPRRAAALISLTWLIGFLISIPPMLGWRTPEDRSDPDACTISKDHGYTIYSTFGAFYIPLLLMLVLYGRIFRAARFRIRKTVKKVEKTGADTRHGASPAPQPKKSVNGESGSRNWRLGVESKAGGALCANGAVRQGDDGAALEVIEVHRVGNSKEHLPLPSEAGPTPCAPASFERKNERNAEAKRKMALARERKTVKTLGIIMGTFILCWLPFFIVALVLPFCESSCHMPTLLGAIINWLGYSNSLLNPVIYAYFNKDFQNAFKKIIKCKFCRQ

[8] = organism: Homo sapiens; assay: Inhibition of BZP receptor (unknown origin); conditions: concentration not given here
[9] = target: T3, Muscarinic acetylcholine receptor M1 (Homo sapiens) (UniProt P11229); assay: Inhibition of M1 receptor (unknown origin); conditions: concentration not given here
T3 sequence (whole entry): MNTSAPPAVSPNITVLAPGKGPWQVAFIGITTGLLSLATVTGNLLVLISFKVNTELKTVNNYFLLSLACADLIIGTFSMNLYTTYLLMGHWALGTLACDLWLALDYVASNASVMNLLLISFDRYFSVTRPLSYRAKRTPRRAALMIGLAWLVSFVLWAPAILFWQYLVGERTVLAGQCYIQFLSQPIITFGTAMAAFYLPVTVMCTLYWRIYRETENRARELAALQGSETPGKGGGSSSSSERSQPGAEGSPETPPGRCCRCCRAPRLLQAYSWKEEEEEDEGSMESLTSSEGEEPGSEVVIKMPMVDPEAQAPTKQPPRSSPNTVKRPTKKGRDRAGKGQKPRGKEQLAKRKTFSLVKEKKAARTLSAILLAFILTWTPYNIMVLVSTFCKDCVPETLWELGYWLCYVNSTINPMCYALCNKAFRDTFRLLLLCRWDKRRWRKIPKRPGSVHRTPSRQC

[10] = target: 5-hydroxytryptamine receptor 2B (Homo sapiens, UniProt P41595); assay: Agonist activity at human 5HT2B receptor stably expressed in Flp-In-T-REx-293 cells assessed as increase in Gq-mediated calcium flux by Fluo-4 direct dye based FLIPR Tetra assay; format: functional, cell-based
[11] = target: Kappa-type opioid receptor (Homo sapiens) (UniProt P41145); assay: Inhibition of KOR receptor (unknown origin); conditions: concentration not given here
[12] = target: Beta-3 adrenergic receptor (Homo sapiens) (UniProt P13945); assay: Inhibition of beta 3 receptor (unknown origin); conditions: concentration not given here
[13] = target: 5-hydroxytryptamine receptor 5A (Homo sapiens, UniProt P47898); assay: Binding affinity to 5HT5A receptor (unknown origin) assessed as inhibition constant
[14] = target: Sigma intracellular receptor 2 (Homo sapiens, UniProt Q5BJF2); assay: Inhibition of sigma 2 receptor (unknown origin); conditions: concentration not given here
[15] = target: 5-hydroxytryptamine receptor 1B (Homo sapiens, UniProt P28222); assay: Binding affinity to 5HT1B receptor (unknown origin) assessed as inhibition constant
[16] = target: T4, Alpha-2C adrenergic receptor (Homo sapiens) (UniProt P18825); assay: Inhibition of alpha2c (unknown origin); conditions: concentration not given here
T4 sequence (whole entry): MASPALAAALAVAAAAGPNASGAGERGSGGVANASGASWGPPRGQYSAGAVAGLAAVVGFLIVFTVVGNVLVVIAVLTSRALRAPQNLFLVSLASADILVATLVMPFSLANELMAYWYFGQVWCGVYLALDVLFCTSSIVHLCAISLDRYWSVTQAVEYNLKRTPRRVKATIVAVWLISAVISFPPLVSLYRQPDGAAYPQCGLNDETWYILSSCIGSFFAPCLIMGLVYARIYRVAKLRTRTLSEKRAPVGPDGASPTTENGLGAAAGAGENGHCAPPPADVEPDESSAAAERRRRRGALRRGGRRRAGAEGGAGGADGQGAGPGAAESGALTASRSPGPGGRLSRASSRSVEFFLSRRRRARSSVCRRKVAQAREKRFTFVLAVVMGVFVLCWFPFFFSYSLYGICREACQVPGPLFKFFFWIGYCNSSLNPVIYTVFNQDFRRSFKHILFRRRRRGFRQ

5-hydroxytryptamine receptor 5A, sequence (P47898 whole entry): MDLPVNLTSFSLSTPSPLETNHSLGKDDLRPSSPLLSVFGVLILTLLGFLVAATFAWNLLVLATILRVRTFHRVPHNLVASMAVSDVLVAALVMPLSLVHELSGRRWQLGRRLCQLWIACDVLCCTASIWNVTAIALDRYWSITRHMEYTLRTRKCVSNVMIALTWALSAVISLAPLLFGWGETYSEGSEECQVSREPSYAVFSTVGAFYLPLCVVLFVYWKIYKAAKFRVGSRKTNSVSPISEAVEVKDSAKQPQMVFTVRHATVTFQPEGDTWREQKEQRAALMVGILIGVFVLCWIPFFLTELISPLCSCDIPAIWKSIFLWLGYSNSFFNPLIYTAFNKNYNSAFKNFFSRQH
Delta-type opioid receptor (Homo sapiens), sequence (P41143 whole entry): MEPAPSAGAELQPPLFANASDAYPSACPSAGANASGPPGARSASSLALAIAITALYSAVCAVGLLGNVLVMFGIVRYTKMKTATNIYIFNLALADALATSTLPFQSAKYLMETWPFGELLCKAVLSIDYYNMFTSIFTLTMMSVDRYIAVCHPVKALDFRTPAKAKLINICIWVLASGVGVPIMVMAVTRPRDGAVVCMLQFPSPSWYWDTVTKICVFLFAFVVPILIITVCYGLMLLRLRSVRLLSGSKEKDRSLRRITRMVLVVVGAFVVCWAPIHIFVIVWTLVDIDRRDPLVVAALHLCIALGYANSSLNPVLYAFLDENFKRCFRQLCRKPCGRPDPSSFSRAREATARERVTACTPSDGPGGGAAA
Kappa-type opioid receptor (Homo sapiens), sequence (P41145 whole entry): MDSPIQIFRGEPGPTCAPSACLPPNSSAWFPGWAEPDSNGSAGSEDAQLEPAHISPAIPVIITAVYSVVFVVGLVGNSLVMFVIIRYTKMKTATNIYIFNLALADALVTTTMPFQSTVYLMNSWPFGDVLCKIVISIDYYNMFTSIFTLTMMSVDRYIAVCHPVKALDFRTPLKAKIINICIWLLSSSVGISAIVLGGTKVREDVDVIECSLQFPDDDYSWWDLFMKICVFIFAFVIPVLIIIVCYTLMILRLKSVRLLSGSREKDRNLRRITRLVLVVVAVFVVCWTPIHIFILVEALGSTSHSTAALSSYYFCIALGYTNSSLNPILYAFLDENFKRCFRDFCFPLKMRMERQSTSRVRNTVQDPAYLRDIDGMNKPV
5-hydroxytryptamine receptor 1B, sequence (P28222 whole entry): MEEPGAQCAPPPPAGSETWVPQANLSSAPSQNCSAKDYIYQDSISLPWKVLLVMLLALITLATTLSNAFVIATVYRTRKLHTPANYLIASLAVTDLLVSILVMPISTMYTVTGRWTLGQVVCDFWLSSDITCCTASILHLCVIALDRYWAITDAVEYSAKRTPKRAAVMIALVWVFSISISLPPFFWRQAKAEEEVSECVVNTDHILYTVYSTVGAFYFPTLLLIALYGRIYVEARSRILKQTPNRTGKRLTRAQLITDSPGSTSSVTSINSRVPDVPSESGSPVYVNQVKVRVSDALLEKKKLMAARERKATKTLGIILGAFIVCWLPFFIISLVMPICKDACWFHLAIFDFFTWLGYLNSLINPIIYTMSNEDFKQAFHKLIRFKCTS
D(3) dopamine receptor, sequence (P35462 whole entry): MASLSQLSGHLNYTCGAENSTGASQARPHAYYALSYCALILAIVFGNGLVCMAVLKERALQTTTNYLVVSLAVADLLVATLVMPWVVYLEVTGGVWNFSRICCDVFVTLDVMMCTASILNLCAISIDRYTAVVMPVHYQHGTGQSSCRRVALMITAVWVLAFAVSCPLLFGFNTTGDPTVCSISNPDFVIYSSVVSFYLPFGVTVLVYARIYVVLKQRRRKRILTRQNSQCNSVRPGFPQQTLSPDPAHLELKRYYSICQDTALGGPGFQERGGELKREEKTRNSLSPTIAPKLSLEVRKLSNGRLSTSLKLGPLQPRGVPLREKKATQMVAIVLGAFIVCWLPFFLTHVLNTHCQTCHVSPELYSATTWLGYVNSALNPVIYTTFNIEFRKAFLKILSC
D(1A) dopamine receptor (Homo sapiens), sequence (P21728 whole entry): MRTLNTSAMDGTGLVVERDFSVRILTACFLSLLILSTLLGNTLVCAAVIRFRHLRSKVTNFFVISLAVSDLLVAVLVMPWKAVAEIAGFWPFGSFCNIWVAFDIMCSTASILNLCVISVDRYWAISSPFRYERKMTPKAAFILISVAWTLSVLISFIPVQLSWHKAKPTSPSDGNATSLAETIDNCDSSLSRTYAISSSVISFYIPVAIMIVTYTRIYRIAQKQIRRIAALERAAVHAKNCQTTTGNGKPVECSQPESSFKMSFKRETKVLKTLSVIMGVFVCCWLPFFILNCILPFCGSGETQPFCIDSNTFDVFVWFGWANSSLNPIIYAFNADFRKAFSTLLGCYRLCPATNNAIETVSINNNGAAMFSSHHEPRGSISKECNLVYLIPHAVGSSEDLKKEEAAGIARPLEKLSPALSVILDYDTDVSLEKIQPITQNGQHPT
Sigma intracellular receptor 2, sequence (Q5BJF2 whole entry): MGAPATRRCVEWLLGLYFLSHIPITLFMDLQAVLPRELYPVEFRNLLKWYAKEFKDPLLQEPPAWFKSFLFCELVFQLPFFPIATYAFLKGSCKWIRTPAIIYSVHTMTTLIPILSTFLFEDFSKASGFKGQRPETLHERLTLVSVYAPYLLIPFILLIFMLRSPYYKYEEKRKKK
Beta-3 adrenergic receptor (Homo sapiens), sequence (P13945 whole entry, looked up): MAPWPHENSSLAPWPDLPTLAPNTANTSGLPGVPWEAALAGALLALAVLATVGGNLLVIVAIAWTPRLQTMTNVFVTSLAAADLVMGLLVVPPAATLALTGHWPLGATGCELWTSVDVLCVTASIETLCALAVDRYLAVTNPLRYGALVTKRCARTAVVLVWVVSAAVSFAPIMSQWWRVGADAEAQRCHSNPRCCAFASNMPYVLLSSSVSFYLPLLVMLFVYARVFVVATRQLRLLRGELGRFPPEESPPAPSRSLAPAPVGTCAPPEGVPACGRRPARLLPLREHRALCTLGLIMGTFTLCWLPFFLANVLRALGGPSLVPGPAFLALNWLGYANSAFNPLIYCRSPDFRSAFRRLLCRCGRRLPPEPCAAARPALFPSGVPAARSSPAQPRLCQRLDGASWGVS
D(1B) dopamine receptor (Homo sapiens), sequence (P21918 whole entry): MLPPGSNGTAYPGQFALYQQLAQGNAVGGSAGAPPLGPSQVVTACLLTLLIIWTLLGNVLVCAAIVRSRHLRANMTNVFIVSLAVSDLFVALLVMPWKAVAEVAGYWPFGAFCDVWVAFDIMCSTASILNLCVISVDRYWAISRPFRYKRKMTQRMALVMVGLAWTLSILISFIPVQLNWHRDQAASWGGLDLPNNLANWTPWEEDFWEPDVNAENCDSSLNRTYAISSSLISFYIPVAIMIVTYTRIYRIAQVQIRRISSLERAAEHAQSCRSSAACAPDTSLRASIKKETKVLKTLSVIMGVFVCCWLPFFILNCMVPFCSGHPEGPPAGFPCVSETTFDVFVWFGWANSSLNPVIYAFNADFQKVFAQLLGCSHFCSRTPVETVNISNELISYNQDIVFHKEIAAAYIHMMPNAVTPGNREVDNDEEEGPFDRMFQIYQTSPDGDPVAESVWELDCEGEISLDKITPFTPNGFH
5-hydroxytryptamine receptor 2A, sequence (P28223 whole entry): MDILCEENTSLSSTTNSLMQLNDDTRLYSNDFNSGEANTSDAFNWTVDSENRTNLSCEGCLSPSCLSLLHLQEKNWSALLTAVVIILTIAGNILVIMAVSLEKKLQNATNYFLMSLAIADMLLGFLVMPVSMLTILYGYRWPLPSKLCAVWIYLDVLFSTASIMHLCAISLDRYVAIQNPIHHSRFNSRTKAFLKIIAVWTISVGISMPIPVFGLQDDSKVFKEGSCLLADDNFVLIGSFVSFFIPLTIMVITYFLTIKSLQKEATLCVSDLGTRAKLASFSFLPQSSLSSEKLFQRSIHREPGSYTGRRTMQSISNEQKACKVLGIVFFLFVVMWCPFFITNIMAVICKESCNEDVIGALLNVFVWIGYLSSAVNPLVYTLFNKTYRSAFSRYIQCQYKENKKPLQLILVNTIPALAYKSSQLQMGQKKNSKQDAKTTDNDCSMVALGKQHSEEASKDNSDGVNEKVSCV
5-hydroxytryptamine receptor 2B, sequence (P41595 whole entry): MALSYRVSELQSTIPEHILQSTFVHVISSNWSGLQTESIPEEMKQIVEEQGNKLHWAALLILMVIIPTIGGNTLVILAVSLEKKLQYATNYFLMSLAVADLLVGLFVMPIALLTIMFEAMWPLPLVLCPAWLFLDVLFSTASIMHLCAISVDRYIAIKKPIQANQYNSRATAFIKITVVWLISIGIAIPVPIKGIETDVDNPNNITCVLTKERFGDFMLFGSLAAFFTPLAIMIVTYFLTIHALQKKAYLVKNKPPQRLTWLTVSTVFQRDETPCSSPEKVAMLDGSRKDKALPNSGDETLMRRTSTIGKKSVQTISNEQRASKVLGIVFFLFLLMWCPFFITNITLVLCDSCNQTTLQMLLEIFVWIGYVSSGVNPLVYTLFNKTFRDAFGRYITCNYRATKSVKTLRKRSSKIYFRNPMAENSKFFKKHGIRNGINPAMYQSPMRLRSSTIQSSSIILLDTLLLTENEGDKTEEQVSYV

Compound	inhibition [1] [%]	inhibition [2] [%]	inhibition [3] [%]	inhibition [4] [%]	Emax [5] [%]	inhibition [6] [%]	Ki [7] [nM]	inhibition [8] [%]	inhibition [9] [%]	EC50 ([10]; read-out: EC50) [nM]	EC50 ([10]; read-out: pEC50 (converted)) [nM]	inhibition [11] [%]	inhibition [12] [%]	Ki [13] [nM]	inhibition [14] [%]	Ki [15] [nM]	inhibition [16] [%]
COc1cc(OC)c(C2NCCc3c2[nH]c2ccc(F)cc32)cc1OC (stereo unspecified)	< 50	< 50	< 50	< 50	97.1	< 50	1370	< 50	< 50	10	11	< 50	< 50	2840			
COc1ccc(C2NCCc3c2[nH]c2ccc(F)cc32)c(O)c1 (stereo unspecified)	< 50	< 50	< 50	< 50	102	< 50	94.4	< 50	< 50	1.3		< 50	< 50	229	< 50	70.8	< 50
COc1cc(OC)c(C2NCCc3c2[nH]c2ccc(Cl)cc32)cc1OC (stereo unspecified)	< 50	< 50	< 50	< 50	98.4	< 50	22.4	< 50	< 50	0.58		< 50	< 50	69.5	< 50	52.1	< 50
COc1ccc(C2NCCc3c2[nH]c2ccc(Cl)cc32)c(O)c1 (stereo unspecified)	< 50	< 50	< 50		100	< 50	79.9	< 50	< 50	3.1		< 50	< 50	177	< 50	164	< 50
